From patent US20210379035A1, “Methods Of Treating Fabry Patients Having Renal Impairment” (Amicus Therapeutics, Inc., priority 2017, published 2021)

Experiments:
cardiac repolarization = conditions: 150 mg and 1250 mg single doses; cited from earlier work
Fabry patients [1] = test: ERT-naïve study: LVMi; type: in vivo, human
Experimental: (§1) One study was a 24-month trial, including a 6-month double-blind, placebo-controlled period, in 67 ERT-naïve patients. The other study was an active-controlled, 18-month trial in 57 ERT-experienced patients with a 12-month open-label extension (OLE). Both the ERT-naïve and ERT-experienced studies included Fabry patients having an eGFR of ≥30 mL/min/1.73 m^2.
(§2) A further analysis of data from these studies examined annualized change in eGFRCKD-EPI, LVMi, WBC α-Gal A activity and plasma lyso-Gb3 levels based on renal function at baseline. The results for each renal subgroup are shown in Table 9 below, with the ERT-naïve study subgroups based on eGFRMDRD and the ERT-experienced study subgroups based on mGFRiohexol.

[2] = ERT-naïve study population PK from sparse blood sampling; type: in vivo, human; conditions: ERT-naïve Fabry patients
Experimental: (§3) Thus, two Fabry patients with renal impairment were evaluated. One patient (P1) had moderate renal impairment, while the other patient (P2) had severe renal impairment. […] The comparison with the results from the ERT-naïve study allows for comparison of PK in the Fabry population with mostly normal, but some mild and a few moderately impaired Fabry patients. None of the patients in the ERT-naïve study had severe renal impairment because these patients were excluded from the study.

[3] = Single-dose renal impairment PK and safety study in non-Fabry subjects (Example 1); type: in vivo, human
Experimental: The eGFR was estimated by the Cockcroft-Gault equation per the FDA Guidance for renal impairment studies.
Volunteers were enrolled into two cohorts stratified for renal function calculated using the Cockcroft-Gault equation for creatinine clearance (CLCR). Subjects were assigned to groups based on an estimated CLCR at screening as calculated using the Cockcroft-Gault equation.
Subjects were grouped according to degree of renal dysfunction: mild (CLCR≥60 and <90 mL/min), moderate (CLCR≥30 and <60 mL/min), or severe (CLCR≥15 and <30 mL/min)

plasma lyso-GB3 [4] = test: ERT-experienced study: plasma lyso-Gb3; type: in vivo, human; conditions: Migalastat 0-18 months
Experimental: as §1, §2

α-Gal A [5] = molecular target: T1, α-Gal A (Homo sapiens, UniProt P06280); conditions: selective and reversible binding; cited from earlier work
T1 sequence (P06280 32-429): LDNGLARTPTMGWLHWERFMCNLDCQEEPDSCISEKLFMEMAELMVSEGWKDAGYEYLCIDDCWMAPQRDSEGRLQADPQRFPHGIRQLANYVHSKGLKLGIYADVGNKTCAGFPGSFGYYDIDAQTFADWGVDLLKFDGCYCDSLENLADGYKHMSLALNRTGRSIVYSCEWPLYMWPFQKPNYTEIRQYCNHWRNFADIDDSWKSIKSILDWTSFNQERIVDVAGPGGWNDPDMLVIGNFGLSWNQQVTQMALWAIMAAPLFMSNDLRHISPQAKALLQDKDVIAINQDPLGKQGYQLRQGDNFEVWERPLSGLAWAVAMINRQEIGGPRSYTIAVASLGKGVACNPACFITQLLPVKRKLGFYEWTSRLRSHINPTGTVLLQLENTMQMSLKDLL

[6] = Plasma and urine PK in healthy volunteers and Fabry patients (single and multiple ascending dose studies); type: in vivo, human; conditions: for Mean percent of the dose recovered in urine: SAD study
[7] = tested on: GL-3 inclusions per kidney interstitial capillary; test: ERT-naïve study: kidney interstitial capillary GL-3 inclusions; type: in vivo, human
Experimental: In the ERT-naïve study, the primary efficacy parameter was GL-3 inclusions per kidney interstitial capillary. Renal function was also evaluated by mGFRiohexol, eGFRCKD-EPI and eGFRMDRD.

Fabry patients [8] = test: eGFR (MDRD) in Fabry patient P1; type: in vivo, human; conditions: P1 on migalastat, moderate impairment
Experimental: as §3

plasma lyso-GB3 [9] = test: ERT-naïve study: plasma lyso-Gb3; type: in vivo, human
Experimental: as §1, §2

α-Gal A [10] = test: ERT-naïve study: WBC α-Gal A activity; type: in vivo, human
Experimental: as §1
A further analysis of data from these studies examined annualized change in eGFRCKD-EPI, LVMi, WBC α-Gal A activity and plasma lyso-Gb3 levels based on renal function at baseline.

[11] = Migalastat→Migalastat 0-24 months, renal subgroup 30 to < 60
[12] = Migalastat→Migalastat 0-24 months, renal subgroup ≥60
[13] = Placebo→Migalastat 6-24 months, renal subgroup 30 to < 60
[14] = Placebo→Migalastat 6-24 months, renal subgroup ≥60
[15] = human, plasma, oral, 150 mg, single 150 mg migalastat HCl, non-Fabry, Mild (N = 8)
[16] = human, plasma, oral, 150 mg, single 150 mg migalastat HCl, non-Fabry, Moderate (N = 8)
[17] = human, plasma, oral, 150 mg, single 150 mg migalastat HCl, non-Fabry, Normal (N = 8)
[18] = human, plasma, oral, 150 mg, single 150 mg migalastat HCl, non-Fabry, Severe (N = 8)

Structure (SMILES): OC[C@H]1NC[C@H](O)[C@@H](O)[C@H]1O [migalastat, (2R,3S,4R,5S)-2-(hydroxymethyl) piperdine-3,4,5-triol]
- effect on cardiac repolarization (cardiac repolarization): negative
- LVMi, change from baseline, mean ± SE (Fabry patients [1]; [11]): −5.5 ± 10.0 gm^2
- LVMi, change from baseline, mean ± SE (Fabry patients [1]; [12]): −9.2 ± 5.8 gm^2
- LVMi, change from baseline, mean ± SE (Fabry patients [1]; [13]): −21.0 ± 14.1 gm^2
- LVMi, change from baseline, mean ± SE (Fabry patients [1]; [14]): −3.2 ± 5.6 gm^2
- Comparison to ERT-Naïve Study PK (migalastat concentration) ([2]; Pre-dose (0 h)): 8.70 ng/mL
- concentration at 3 h ([2]; human, plasma, 3 Hrs Post): 1180 ng/mL
- concentration at 48 h ([2]; human, plasma, 48 h): 8.7 ng/mL
- concentration at 3 h ([3]; human, plasma, oral, 150 mg, Comparison to Example 1 Moderate Impairment (migalastat concentration), non-Fabry, moderate impairment, 3 Hrs Post): 1870 ng/mL
- concentration at 24 h ([3]; human, plasma, oral, 150 mg, Comparison to Example 1 Moderate Impairment (migalastat concentration), non-Fabry, moderate impairment, 24 Hrs Post): 239 ng/mL
- concentration at 48 h ([3]; human, plasma, oral, 150 mg, Comparison to Example 1 Moderate Impairment (migalastat concentration), non-Fabry, moderate impairment, 48 Hrs Post): 64.5 ng/mL
- concentration at 2 h ([3]; human, plasma, oral, 150 mg, Comparison to Example 1 Severe Impairment (migalastat concentration), non-Fabry, severe impairment, 2 h): 1550 ng/mL
- concentration at 24 h ([3]; human, plasma, oral, 150 mg, Comparison to Example 1 Severe Impairment (migalastat concentration), non-Fabry, severe impairment, 24 h): 770 ng/mL
- concentration at 48 h ([3]; human, plasma, oral, 150 mg, Comparison to Example 1 Severe Impairment (migalastat concentration), non-Fabry, severe impairment, 48 h): 334 ng/mL
- AUC(0-inf) [3, 15]: 14500 ng·h/mL
- AUC(0-t) [3, 15]: 14400 ng·h/mL
- Cmax [3, 15]: 2190 ng/mL
- concentration at 48 h ([3]; human, plasma, oral, 150 mg, single 150 mg migalastat HCl, non-Fabry, Mild (N = 8), read-out: C48): 9.34 ng/mL
- half-life ([3]; human, plasma, oral, 150 mg, single 150 mg migalastat HCl, non-Fabry, Mild (N = 8), read-out: t1/2 (converted)): 7.66 h
- AUC(0-inf) [3, 16]: 22500 ng·h/mL
- AUC(0-t) [3, 16]: 22100 ng·h/mL
- Cmax [3, 16]: 1870 ng/mL
- Tmax [3, 16]: 3 h
- concentration at 48 h ([3]; human, plasma, oral, 150 mg, single 150 mg migalastat HCl, non-Fabry, Moderate (N = 8), read-out: C48): 64.5 ng/mL
- half-life ([3]; human, plasma, oral, 150 mg, single 150 mg migalastat HCl, non-Fabry, Moderate (N = 8), read-out: t1/2 (converted)): 22.2 h
- AUC(0-inf) [3, 17]: 12400 ng·h/mL
- AUC(0-t) [3, 17]: 12300 ng·h/mL
- Cmax [3, 17]: 2100 ng/mL
- concentration at 48 h ([3]; human, plasma, oral, 150 mg, single 150 mg migalastat HCl, non-Fabry, Normal (N = 8), read-out: C48): 5.7 ng/mL
- half-life ([3]; human, plasma, oral, 150 mg, single 150 mg migalastat HCl, non-Fabry, Normal (N = 8), read-out: t1/2 (converted)): 6.42 h
- AUC(0-inf) [3, 18]: 56200 ng·h/mL
- AUC(0-t) [3, 18]: 53100 ng·h/mL
- Cmax [3, 18]: 2080 ng/mL
- Tmax [3, 18]: 4.27 h
- concentration at 48 h ([3]; human, plasma, oral, 150 mg, single 150 mg migalastat HCl, non-Fabry, Severe (N = 8), read-out: C48): 334 ng/mL
- half-life ([3]; human, plasma, oral, 150 mg, single 150 mg migalastat HCl, non-Fabry, Severe (N = 8), read-out: t1/2 (converted)): 32.3 h
- half-life ([3]; human, plasma, po, 150 mg, single oral 150 mg migalastat HCl, mild renal impairment, read-out: t1/2 in plasma, arithmetic mean [min, max] (converted)): 7.7 h
- half-life ([3]; human, plasma, po, 150 mg, single oral 150 mg migalastat HCl, moderate renal impairment, read-out: t1/2 in plasma, arithmetic mean [min, max] (converted)): 22.2 h
- half-life ([3]; human, plasma, po, 150 mg, single oral 150 mg migalastat HCl, normal renal function, read-out: t1/2 in plasma, arithmetic mean [min, max] (converted)): 6.4 h
- half-life ([3]; human, plasma, po, 150 mg, single oral 150 mg migalastat HCl, severe renal impairment, read-out: t1/2 in plasma, arithmetic mean [min, max] (converted)): 32.3 h
- Plasma migalastat concentration ([3]; non-Fabry, moderate impairment, Pre-dose (0 h), same value as 48 h): 64.5 ng/mL
- CL/F ([3]; single 150 mg migalastat HCl, non-Fabry, Mild (N = 8)): 10.3 L/h
- CL/F ([3]; single 150 mg migalastat HCl, non-Fabry, Moderate (N = 8)): 6.68 L/h
- CL/F ([3]; single 150 mg migalastat HCl, non-Fabry, Normal (N = 8)): 12.1 L/h
- CL/F ([3]; single 150 mg migalastat HCl, non-Fabry, Severe (N = 8)): 2.67 L/h
- Incidence of adverse events ([3]; single 150 mg migalastat HCl, all renal function groups): comparable across all renal function groups
- increase of mean plasma migalastat AUC0-∞ compared to healthy control subjects ([3]; single oral 150 mg migalastat HCl, mild renal impairment): 1.2 fold
- increase of mean plasma migalastat AUC0-∞ compared to healthy control subjects ([3]; single oral 150 mg migalastat HCl, moderate renal impairment): 1.8 fold
- increase of mean plasma migalastat AUC0-∞ compared to healthy control subjects ([3]; single oral 150 mg migalastat HCl, severe renal impairment): 4.5 fold
- Plasma lyso-Gb3, change from baseline, mean (plasma lyso-GB3 [4]; renal subgroup 30 to < 60): +0.5 nmol/L
- Plasma lyso-Gb3, change from baseline, mean (plasma lyso-GB3 [4]; renal subgroup ≥60): 1.9 nmol/L
- binding to the active site of wild-type α-Gal A and specific mutant forms of α-Gal A (α-Gal A [5]): high affinity
- Mean percent of the dose recovered in urine ([6]; 25 mg): 32.2%
- Mean percent of the dose recovered in urine ([6]; 75 mg): 43.0%
- Mean percent of the dose recovered in urine ([6]; 225 mg): 49.3%
- Mean percent of the dose recovered in urine ([6]; 675 mg): 48.5%
- excretion ([6]; human, in vivo): primarily excreted unchanged in urine
- half-life ([6]; human, plasma, single-dose studies, oral, read-out: mean elimination half-lives (t1/2)): 3.04 to 4.79 h
- accumulation of plasma migalastat ([6]; multiple ascending dose studies): only minimal accumulation
- increase of mean Cmax and AUC0-t with dose ([6]; oral doses from 75 mg to 1250 mg): dose-proportional manner
- time to maximum concentrations ([6]; single-dose studies, oral, range 1 to 6 hrs): approximately 3 hours
- change in kidney interstitial capillary GL-3 inclusions ([7]; baseline to month 6, eGFR<60 mL/min/1.73 m^2, n=3): −0.39
- change in kidney interstitial capillary GL-3 inclusions ([7]; baseline to month 6, eGFR≥60 mL/min/1.73 m^2, n=22): −0.30
- eGFRMDRD (Fabry patients [8]): 32 mL/min
- Plasma lyso-Gb3, change from baseline, mean (plasma lyso-GB3 [9]; [11]): -29.0 nmol/L
- Plasma lyso-Gb3, change from baseline, mean (plasma lyso-GB3 [9]; [12]): -7.7 nmol/L
- Plasma lyso-Gb3, change from baseline, mean (plasma lyso-GB3 [9]; [14]): -20.0 nmol/L
- WBC α-Gal A Activity (males only), change from baseline (α-Gal A [10]; [11]): +1.4 4MU/hr/mg
- WBC α-Gal A Activity (males only), change from baseline, mean ± SE (α-Gal A [10]; [12]): +1.6 ± 1.5 4MU/hr/mg
- WBC α-Gal A Activity (males only), change from baseline, mean ± SE (α-Gal A [10]; [13]): +4.0 ± 3.0 4MU/hr/mg
- WBC α-Gal A Activity (males only), change from baseline, mean ± SE (α-Gal A [10]; [14]): 5.2 4MU/h/mg
